Experimental data published in patent US20060233883A1, “Intravenous nanoparticles for targeting drug delivery and sustained drug release” (priority 2003, published 2006).
Blank lines part the entries; values can stand above or below the compound they belong to.

Columns and labels:
[1] = Encapsulation of steroids into PLGA nanoparticles (steroid content by HPLC); assay type: physicochemical; conditions: for Steroid/nanoparticle (wt %): PLGA nanoparticles
Method: Each mixture was centrifuged at 12,000 rpm for 5 min and the supernatant was discarded to obtain precipitates in the form of zinc-steroids or iron-steroids. […] To each of the resultant solutions, an aqueous solution of zinc acetate was added and the mixture was allowed to stand for 2 hours at room temperature. […] The mixture was then centrifuged at 20,000 G for 20 min. Following the removal of the supernatant, the residue was resuspended in water and the suspension was again centrifuged to wash the nanoparticles. […] Similarly, the amount of water-insoluble steroid was determined for the nanoparticles prepared by different method without metal ions.

[2] = Formation of water-insoluble precipitates of drugs with metal ions (turbidity observed); assay type: physicochemical; conditions: for Formation of precipitates with metal ions: 3N HCl, 20 mM drug in 0.2M Tris-HCl pH 7.8
[3] = as above; assay type: physicochemical; conditions: 20 mM drug in 0.2M Tris-HCl pH 7.8 + equal volume 100 mM metal ion
Method: Compounds shown in Table 1 below were used to as the low-molecular weight, water-soluble and non-peptide drug having phosphate groups. […] The solution was then added to equal volume of 100 mM aqueous solutions of different metal ions. The turbidity of each of the resulting mixtures was observed.

inflammatory sites = assay: Accumulation of nanoparticles in inflammatory sites (carrageenin leg edema, fluorescence microscopy); assay type: in vivo, male Lewis rats; conditions: single tail vein injection 4 hours after carrageenin; 2 hours after administration
Method: Inflammation was induced by injecting 100 μl physiological saline containing 1% carrageenin in the left hind paw of male Lewis rats. After 4 hours, single dosages of rhodamine-encapsulating nanoparticles of two different sizes (200 nm and 500 nm) were injected into a tail vein. 2 hours after administration, the resultant leg edema was cut and cryostat sections were prepared.
As controls, one group was administered with physiological saline and another group with rhodamine alone.

Compound: C[C@H]1C[C@H]2[C@@H]3CCC4=CC(=O)C=C[C@]4(C)[C@@]3(F)[C@@H](O)C[C@]2(C)[C@@]1(O)C(=O)COP(=O)(O)O [BP-Na, betamethasone phosphate]
- Steroid/nanoparticle (wt %) [1]: 0 wt %

Compound: C[C@@H]1C[C@H]2[C@@H]3CCC4=CC(=O)C=C[C@]4(C)[C@@]3(F)[C@@H](O)C[C@]2(C)[C@@]1(O)C(=O)COP(=O)(O)O [DP-Na, dexamethasone phosphate]
- Steroid/nanoparticle (wt %) [1]: 0 wt %

Compound: C[C@@H]1C[C@H]2[C@@H]3CCC4=CC(=O)C=C[C@]4(C)[C@@]3(F)[C@@H](O)C[C@]2(C)[C@@]1(O)C(=O)COP(=O)(O)O [DP-Zn, dexamethasone phosphate]
- Steroid/nanoparticle (wt %) [1]: 1.15 wt %

Compound: C[C@H]1C[C@H]2[C@@H]3CCC4=CC(=O)C=C[C@]4(C)[C@@]3(F)[C@@H](O)C[C@]2(C)[C@@]1(O)C(=O)COP(=O)(O)O [betamethasone phosphate]
- Formation of precipitates with metal ions [2]: −
- Formation of precipitates with metal ions ([3]; CuCl2): +++
- Formation of precipitates with metal ions ([3]; FeCl2): +++
- Formation of precipitates with metal ions ([3]; FeCl3): +++
- Formation of precipitates with metal ions ([3]; MgCl2): −
- Formation of precipitates with metal ions ([3]; NiCl2): −
- Formation of precipitates with metal ions ([3]; Zn(CH3COO)2): +++
- Formation of precipitates with metal ions ([3]; ZnCl2): +++
- dispersion state of the nanoparticles ([1]; 500 μl or less of acetone): formed aggregates
- dispersion state of the nanoparticles ([1]; 700 μl acetone): remained stably dispersed
- Steroid/nanoparticle (wt %) ([1]; zinc precipitate of 5 mg, acetone 700 μl): 7.34 wt %
- Steroid/nanoparticle (wt %) ([1]; zinc precipitate of 5 mg, acetone 900 μl): 4.28 wt %
- Steroid/nanoparticle (wt %) ([1]; zinc precipitate of 5 mg, acetone 1100 μl): 3.46 wt %
- Steroid/nanoparticle (wt %) ([1]; zinc precipitate of 5 mg, acetone 1300 μl): 2.71 wt %
- Steroid/nanoparticle (wt %) ([1]; zinc precipitate of 5 mg, acetone 1500 μl): 1.93 wt %

Compound: Naphthyl-phosphate
- Formation of precipitates with metal ions [2]: −
- Formation of precipitates with metal ions ([3]; CuCl2): −
- Formation of precipitates with metal ions ([3]; FeCl2): +++
- Formation of precipitates with metal ions ([3]; FeCl3): +++
- Formation of precipitates with metal ions ([3]; MgCl2): −
- Formation of precipitates with metal ions ([3]; NiCl2): −
- Formation of precipitates with metal ions ([3]; Zn(CH3COO)2): +++
- Formation of precipitates with metal ions ([3]; ZnCl2): +++

Compound: hydrocortisone phosphate [HP-Na]
- Steroid/nanoparticle (wt %) [1]: 0 wt %

Compound: hydrocortisone phosphate [HP-Zn]
- Steroid/nanoparticle (wt %) [1]: 1.05 wt %

Second part, the compound after the results:

- Steroid/nanoparticle (wt %) [1]: 0.47 wt %
Compound: CCC(=O)OCC(=O)[C@@]1(OC(=O)CC)[C@@H](C)C[C@H]2[C@@H]3CCC4=CC(=O)C=C[C@]4(C)[C@@]3(F)[C@@H](O)C[C@@]21C [BDP, betamethasone dipropionate]

- Steroid/nanoparticle (wt %) [1]: 1.15 wt %
Compound: C[C@H]1C[C@H]2[C@@H]3CCC4=CC(=O)C=C[C@]4(C)[C@@]3(F)[C@@H](O)C[C@]2(C)[C@@]1(O)C(=O)COP(=O)(O)O [BP-Fe, betamethasone phosphate]

- Steroid/nanoparticle (wt %) [1]: 2.03 wt %
Compound: C[C@H]1C[C@H]2[C@@H]3CCC4=CC(=O)C=C[C@]4(C)[C@@]3(F)[C@@H](O)C[C@]2(C)[C@@]1(O)C(=O)COP(=O)(O)O [BP-Zn, betamethasone phosphate]

- Formation of precipitates with metal ions [2]: −
- Formation of precipitates with metal ions ([3]; CuCl2): +++
- Formation of precipitates with metal ions ([3]; FeCl2): +++
- Formation of precipitates with metal ions ([3]; FeCl3): +++
- Formation of precipitates with metal ions ([3]; MgCl2): −
- Formation of precipitates with metal ions ([3]; NiCl2): +
- Formation of precipitates with metal ions ([3]; Zn(CH3COO)2): +++
- Formation of precipitates with metal ions ([3]; ZnCl2): +++
Compound: C[C@@H]1C[C@H]2[C@@H]3CCC4=CC(=O)C=C[C@]4(C)[C@@]3(F)[C@@H](O)C[C@]2(C)[C@@]1(O)C(=O)COP(=O)(O)O [Dexamethasone phosphate, dexamethasone phosphate]

- Steroid/nanoparticle (wt %) [1]: 0.15 wt %
Compound: CC(=O)OCC(=O)[C@@]1(O)[C@@H](C)C[C@H]2[C@@H]3CCC4=CC(=O)C=C[C@]4(C)[C@@]3(F)[C@@H](O)C[C@@]21C [betamethasone acetate]

- Formation of precipitates with metal ions [2]: −
- molar ratio with respect to zinc ion at which precipitate formation was most significant ([2]; zinc ion, molar ratio varied): approximately 1
- Formation of precipitates with metal ions ([3]; CuCl2): +++
- Formation of precipitates with metal ions ([3]; FeCl2): +++
- Formation of precipitates with metal ions ([3]; FeCl3): +++
- Formation of precipitates with metal ions ([3]; MgCl2): −
- Formation of precipitates with metal ions ([3]; NiCl2): −
- Formation of precipitates with metal ions ([3]; Zn(CH3COO)2): +++
- Formation of precipitates with metal ions ([3]; ZnCl2): +++
Compound: Cc1cc2nc3c(=O)[nH]c(=O)nc-3n(C[C@H](O)[C@H](O)[C@H](O)COP(=O)(O)O)c2cc1C [riboflavin phosphate]

- accumulation of the nanoparticles in the inflammatory sites (fluorescence in tissue sections) (inflammatory sites): No significant accumulation
Compound: rhodamine
